In US20070082953A1, “Use of l-dopa, derivatives thereof and medicaments comprising said compounds for the prophylaxis of psychotic diseases” (priority 2003, published 2007):

Tested on: patients with acute schizophrenia
Experiment: Relapse prophylaxis in schizophrenia patients withdrawn from fluphenazine maintenance therapy
Format: in vivo
Conditions: ten clinically stable patients taken off fluphenazine; L-dopa or L-dopa combination preparation given 2 months prior to withdrawal and during the entire withdrawal phase; about 8 of 10 relapses expected within 12 months per literature
Procedure: Ten patients with acute schizophrenia, who had accordingly received maintenance therapy with fluphenazine for more than one year and were clinically stable, were successively taken off this drug. According to clinical experience (see Gitlin M., Nuechterlein K., Subotnik K. L. et al., Am. J. Psychiatry (2001) 158(11), pp. 1835-42), about 8 of the 10 patients would be expected to suffer a relapse within the following 12 months. Our patients were treated with L-dopa or a combination preparation containing L-dopa for 2 months prior to withdrawal and during the entire withdrawal phase. In these patients, a relapse occurred in only 2 of 10 cases.

N[C@@H](Cc1ccc(O)c(O)c1)C(=O)O [L-dopa, 3,4-dihydroxy-L-phenylalanine]
relapse occurred (cases with relapse out of patients treated): 2 of 10
